Results taken from patent US20260014235A1, “METHODS OF PROMOTING REMYELINATION” (Mallinckrodt Pharmaceuticals Ireland Limited, priority 2019, published 2026).
Marks after values point to notes of the source that are not given here.

System: mouse model of cuprizone demylelination
Assay: Remyelination in gray matter (hippocampus) via quantification of PLP, cuprizone/rapamycin mouse model
Format: in vivo, C57BL/6 mice
Details: 6 weeks treatment after 12 weeks cuprizone co-administered with rapamycin, RCI 10 U/kg
Procedure: The hypothesis that repository corticotropin injection (RCI) accelerates remyelination in a mouse model of cuprizone demylelination was tested. C57BL/6 mice were fed 0.3% cuprizone co-administered with rapamycin for 12 weeks to induce demyelination and inhibit spontaneous remyelination. […] Mice were treated for another 6 weeks with RCI, triiodothyronine (T3, positive control), or vehicle (negative control). Remyelination was assayed in gray matter (hippocampus) via quantification of myelin proteolipid protein (PLP) and in white matter (corpus callosum) via p-Phenylenediamine (PPD) staining. […] Of note-increased remyelination was not observed at higher doses of RCI in this rodent model (data not shown).

Structure (SMILES): N[C@@H](Cc1cc(I)c(Oc2ccc(O)c(I)c2)c(I)c1)C(=O)O [Positive Control, triiodothyronine]
- Mean PLP (% Area Covered): 40.8** % Area Covered
